In US11813340B2, “PSMA targeted radiohalogenated urea-polyaminocarboxylates for cancer radiotherapy” (The Johns Hopkins University, priority 2018, dated 2023):
Like-named read-outs stand apart in the source and are kept apart here.

Test system: PSMA+PC3-PIP and PSMA-PC3-flu flank xenografts
Method: Final compounds were purified by HPLC. […] Organs were harvested 1, 4, and 24 h post-injection (n=5 per time point).

[1] = 4-hr, Blocker VK-02-90 1.0 nmole
[2] = 4-hr, Blocker VK-02-90 5.0 nmole
[3] = 4-hr, Blocker YC-I-27 0.5 nmole
[4] = 4-hr, Blocker YC-I-27 1.0 nmole
[5] = 24-hour, Blocker VK-02-90 0.5 nmole
[6] = 24-hour, Blocker VK-02-90 1.0 nmole
[7] = 24-hour, Blocker VK-02-90 5.0 nmole
[8] = 24-hour, Blocker YC-I-27 0.5 nmole
[9] = 24-hour, Blocker YC-I-27 1.0 nmole
[10] = 24-hour, Blocker YC-I-27 5 nmole

## O=C([O-])CN1CCN(CC(=O)[O-])CCN(CC(=O)NCCCCC(=O)N(CCCC[C@H](NC(=O)N[C@@H](CCC(=O)O)C(=O)O)C(=O)O)Cc2ccc([125I])cc2)CCN(CC(=O)[O-])CC1.[Lu+3] [[^125I]VK-02-90-Lu]
[1]
  Biodistribution, PIP tumor: 27.1 ± 3.6 % injected dose/g
  Biodistribution, Salivary glands: 0.1 ± 0.02 % injected dose/g
  Biodistribution, Spleen: 0.2 ± 0.1 % injected dose/g
  Biodistribution, Stomach: 0.1 ± 0.03 % injected dose/g
[2]
  Biodistribution, Blood: 0 % injected dose/g
  Biodistribution, Flu tumor: 0.1 ± 0.01 % injected dose/g
  Biodistribution, Kidneys: 0.9 ± 0.3 % injected dose/g
  Biodistribution, Lacrimal glands: 0.1 ± 0.1 % injected dose/g
  Biodistribution, PIP tumor: 18.8 ± 2.0 % injected dose/g
  Biodistribution, Salivary glands: 0.05 ± 0.02 % injected dose/g
  Biodistribution, Spleen: 0.15 ± 0.08 % injected dose/g
  Biodistribution, Stomach: 0.1 ± 0.04 % injected dose/g
[3]
  Biodistribution, Blood: 0.4 ± 0.06 % injected dose/g
  Biodistribution, Flu tumor: 0.3 ± 0.1 % injected dose/g
  Biodistribution, Kidneys: 0.9 ± 0.1 % injected dose/g
  Biodistribution, Lacrimal glands: 0.2 ± 0.02 % injected dose/g
  Biodistribution, PIP tumor: 24.0 ± 3.2 % injected dose/g
  Biodistribution, Salivary glands: 3.3 ± 0.8 % injected dose/g
  Biodistribution, Spleen: 0.25 ± 0.07 % injected dose/g
  Biodistribution, Stomach: 1.3 ± 0.2 % injected dose/g
[4]
  Biodistribution, Blood: 0.4 ± 0.05 % injected dose/g
  Biodistribution, Flu tumor: 0.3 ± 0.1 % injected dose/g
  Biodistribution, Kidneys: 0.6 ± 0.03 % injected dose/g
  Biodistribution, Lacrimal glands: 0.2 ± 0.03 % injected dose/g
  Biodistribution, PIP tumor: 23.8 ± 1.1 % injected dose/g
  Biodistribution, Salivary glands: 3.2 ± 0.7 % injected dose/g
  Biodistribution, Spleen: 0.2 ± 0.04 % injected dose/g
  Biodistribution, Stomach: 1.2 ± 0.2 % injected dose/g
4-hr, Blocker YC-I-27 5 nmole
  Biodistribution, Blood: 0.4 ± 0.1 % injected dose/g
  Biodistribution, Flu tumor: 0.3 ± 0.1 % injected dose/g
  Biodistribution, Kidneys: 0.7 ± 0.1 % injected dose/g
  Biodistribution, Lacrimal glands: 0.5 ± 0.5 % injected dose/g
  Biodistribution, Salivary glands: 5.0 ± 1.4 % injected dose/g
  Biodistribution, Spleen: 0.3 ± 0.06 % injected dose/g
  Biodistribution, Stomach: 1.6 ± 0.4 % injected dose/g
24-hour, Blocker None
  Biodistribution, Blood: 0 % injected dose/g
  Biodistribution, Flu tumor: 0.05 ± 0.01 % injected dose/g
  Biodistribution, Kidneys: 1.3 ± 0.7 % injected dose/g
  Biodistribution, Lacrimal glands: 0.05 ± 0.04 % injected dose/g
  Biodistribution, PIP tumor: 18.0 ± 6.0 % injected dose/g
  Biodistribution, Salivary glands: 0.2 ± 0.08 % injected dose/g
  Biodistribution, Spleen: 0.1 ± 0.05 % injected dose/g
  Biodistribution, Stomach: 0.1 ± 0.04 % injected dose/g
[5]
  Biodistribution, Blood: 0.1 ± 0.01 % injected dose/g
  Biodistribution, Flu tumor: 0.04 ± 0.01 % injected dose/g
  Biodistribution, Kidneys: 0.5 ± 0.2 % injected dose/g
  Biodistribution, Lacrimal glands: 0.03 ± 0.02 % injected dose/g
  Biodistribution, PIP tumor: 16.3 ± 4.2 % injected dose/g
  Biodistribution, Salivary glands: 0.02 ± 0.01 % injected dose/g
  Biodistribution, Spleen: 0.04 ± 0.01 % injected dose/g
  Biodistribution, Stomach: 0.04 ± 0.04 % injected dose/g
[6]
  Biodistribution, Blood: 0 % injected dose/g
  Biodistribution, Flu tumor: 0.03 ± 0.01 % injected dose/g
  Biodistribution, Kidneys: 0.4 ± 0.1 % injected dose/g
  Biodistribution, Lacrimal glands: 0 % injected dose/g
  Biodistribution, Salivary glands: 0 % injected dose/g
  Biodistribution, Spleen: 0 % injected dose/g
  Biodistribution, Stomach: 0.03 ± 0.02 % injected dose/g
[7]
  Biodistribution, Blood: 0 % injected dose/g
  Biodistribution, Flu tumor: 0.02 ± 0.01 % injected dose/g
  Biodistribution, Kidneys: 0.2 ± 0.2 % injected dose/g
  Biodistribution, Lacrimal glands: 0.01 ± 0.03 % injected dose/g
  Biodistribution, Salivary glands: 0.01 ± 0.01 % injected dose/g
  Biodistribution, Spleen: 0.01 ± 0.03 % injected dose/g
  Biodistribution, Stomach: 0.04 ± 0.03 % injected dose/g
[8]
  Biodistribution, Blood: 0.03 ± 0.03 % injected dose/g
  Biodistribution, Flu tumor: 0.04 ± 0.02 % injected dose/g
  Biodistribution, Kidneys: 0.1 ± 0.05 % injected dose/g
  Biodistribution, Lacrimal glands: 0.03 ± 0.04 % injected dose/g
  Biodistribution, PIP tumor: 13.4 ± 3.8 % injected dose/g
  Biodistribution, Salivary glands: 0.6 ± 0.5 % injected dose/g
  Biodistribution, Spleen: 0.02 ± 0.02 % injected dose/g
  Biodistribution, Stomach: 0.1 ± 0.1 % injected dose/g
[9]
  Biodistribution, Blood: 0.02 ± 0.01 % injected dose/g
  Biodistribution, Flu tumor: 0.03 ± 0.01 % injected dose/g
  Biodistribution, Lacrimal glands: 0.02 ± 0.02 % injected dose/g
  Biodistribution, Salivary glands: 0.4 ± 0.2 % injected dose/g
  Biodistribution, Spleen: 0.04 ± 0.02 % injected dose/g
  Biodistribution, Stomach: 0.08 ± 0.03 % injected dose/g
[10]
  Biodistribution, Blood: 0.02 ± 0.01 % injected dose/g
  Biodistribution, Flu tumor: 0.03 ± 0.01 % injected dose/g
  Biodistribution, Kidneys: 0.05 ± 0.02 % injected dose/g
  Biodistribution, Lacrimal glands: 0.01 ± 0.02 % injected dose/g
  Biodistribution, PIP tumor: 6.6 ± 3.2 % injected dose/g
  Biodistribution, Salivary glands: 0.4 ± 0.1 % injected dose/g
  Biodistribution, Spleen: 0.01 ± 0.03 % injected dose/g
  Biodistribution, Stomach: 0.07 ± 0.1 % injected dose/g
